This passage reports TGI results from PubChem BioAssay (NCI).

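96-well plates; 48 h exposure; 5 concentrations. Endpoints by linear interpolation between flanking doses. Not reached: highest tested concentration assigned. TGI marks complete inhibition of growth.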 Bounds are passed on as bounds.

Among the test systems are T-47D breast; K-562 leukemia; SN12C renal; HCT-15 colon; NCI-H226 lung; MOLT-4 leukemia; A549 NSCLC; RPMI-8226 leukemia; SK-MEL-28 melanoma; TK-10 renal; SK-MEL-2 melanoma.
What all share (test): NCI-60 cell line screen, 48 h

Consider `CCOc1ccc(N=C/C=C(\Cl)c2ccc3ccccc3c2)cc1`, for which the TGI was 22.3 µM in the experiment with T-47D breast; 23.7 µM in the experiment on K-562 leukemia; 33.9 µM in the experiment with SN12C renal; 30.2 µM in the experiment on HCT-15 colon; 53.7 µM in the experiment with NCI-H226 lung; 6.16 µM in the experiment on MOLT-4 leukemia. In addition, the TGI was above 100 µM with A549 NSCLC; 24.7 µM with RPMI-8226 leukemia; 31.4 µM in the experiment with SK-MEL-28 melanoma; 35.7 µM in the experiment on TK-10 renal; 42.7 µM in the experiment on SK-MEL-2 melanoma.

Turning to `O=C1C(Br)=Cc2c(Cl)sc(Cl)c21`, the TGI is 7.58 µM in the experiment with T-47D breast; 13.6 µM in the experiment with K-562 leukemia; 18.4 µM in the experiment with SN12C renal; 18.6 µM in the experiment on HCT-15 colon; above 100 µM in the experiment on NCI-H226 lung; 2.08 µM in the experiment on MOLT-4 leukemia. Also, the TGI was above 72.9 µM with A549 NSCLC; 2.98 µM in the experiment on RPMI-8226 leukemia; 41.3 µM in the experiment on SK-MEL-28 melanoma; 5.23 µM in the experiment with TK-10 renal; 32.3 µM with SK-MEL-2 melanoma.

On to `O=C1NC(=S)NC(=O)C1C(c1ccccc1[N+](=O)[O-])C1C(=O)NC(=S)NC1=O`, for which the TGI in the experiment on T-47D breast, in the experiment on K-562 leukemia, in the experiment on SN12C renal, with HCT-15 colon, with NCI-H226 lung and in the experiment on MOLT-4 leukemia was above 100 µM throughout. Besides, the TGI in the experiment with A549 NSCLC, in the experiment with RPMI-8226 leukemia, in the experiment with SK-MEL-28 melanoma, with TK-10 renal and in the experiment with SK-MEL-2 melanoma was above 100 µM in each case.

For the molecule `CC(C)c1c(P(=O)(c2ccccc2)c2ccccc2)n(C)c2ccccc12`, the TGI in the experiment with T-47D breast, in the experiment on K-562 leukemia, with SN12C renal, in the experiment with HCT-15 colon, in the experiment with NCI-H226 lung and with MOLT-4 leukemia was above 100 µM in each case. Besides, the TGI in the experiment with A549 NSCLC, with RPMI-8226 leukemia, with SK-MEL-28 melanoma, in the experiment with TK-10 renal and in the experiment on SK-MEL-2 melanoma was above 100 µM throughout.

In the case of `C=CC/C(C(=O)OC)=C(/C(=O)OC)N(CCC)CCC`, the TGI with T-47D breast, in the experiment with K-562 leukemia, in the experiment with SN12C renal, with HCT-15 colon, in the experiment with NCI-H226 lung and in the experiment with MOLT-4 leukemia was above 100 µM in each case. For the same molecule, the TGI in the experiment on A549 NSCLC, in the experiment on RPMI-8226 leukemia, with SK-MEL-28 melanoma, in the experiment with TK-10 renal and with SK-MEL-2 melanoma was above 100 µM throughout.

Turning to `O=C1OC[C@@H]2Cc3c([nH]c4ccccc34)[C@@H](c3ccc(O)cc3)N12`, the TGI with T-47D breast is above 100 µM; in the experiment with K-562 leukemia, above 75.2 µM; in the experiment on SN12C renal, above 89.7 µM; in the experiment with HCT-15 colon it was above 100 µM; with NCI-H226 lung, 80.1 µM; in the experiment with MOLT-4 leukemia, above 75.3 µM. Besides, the TGI with A549 NSCLC was 75.8 µM; in the experiment on RPMI-8226 leukemia it was above 80.9 µM; in the experiment with SK-MEL-28 melanoma, above 100 µM; in the experiment on TK-10 renal, above 100 µM; with SK-MEL-2 melanoma it was 67.6 µM.

Turning to `Cc1nc2ccc([N+](=O)[O-])cc2c(=O)n1C(=S)Nc1cccc(Cl)c1`, the TGI in the experiment with T-47D breast was 69.6 µM; in the experiment on K-562 leukemia, 98.5 µM; in the experiment with SN12C renal it was 51.4 µM; in the experiment on HCT-15 colon, 31 µM; in the experiment with NCI-H226 lung, 44 µM; with MOLT-4 leukemia, above 100 µM. Besides, the TGI with A549 NSCLC came to 92 µM; in the experiment on RPMI-8226 leukemia, 19.6 µM; with SK-MEL-28 melanoma, 40.6 µM; with TK-10 renal, 67.5 µM; in the experiment with SK-MEL-2 melanoma it was 23.9 µM.

As to `Cc1nc(Cl)c(CBr)c(Cl)n1`, the TGI with T-47D breast amounted to 4.5 µM; with K-562 leukemia, 0.887 µM; with SN12C renal, 3.75 µM; in the experiment with HCT-15 colon, 4.37 µM; with NCI-H226 lung it was 6.73 µM; in the experiment on MOLT-4 leukemia, 1.09 µM. The TGI amounted to 12.4 µM with A549 NSCLC; 4.47 µM in the experiment on RPMI-8226 leukemia; 3.07 µM in the experiment on SK-MEL-28 melanoma; 3.68 µM with TK-10 renal; 4.68 µM in the experiment on SK-MEL-2 melanoma.

With `O=C1C(C=NCCc2c[nH]c3ccccc23)C(C(F)(F)F)=NN1c1nc2ccccc2s1` (stereo unspecified), the TGI in the experiment with T-47D breast is 25.5 µM; with K-562 leukemia, above 100 µM; in the experiment on SN12C renal, above 100 µM; in the experiment on HCT-15 colon it was above 100 µM; in the experiment on NCI-H226 lung it was 68 µM; in the experiment with MOLT-4 leukemia it was 60.4 µM. For the same molecule, the TGI in the experiment with A549 NSCLC was above 100 µM; in the experiment with RPMI-8226 leukemia it was 62.5 µM; with SK-MEL-28 melanoma it was above 100 µM; in the experiment on TK-10 renal, 62.1 µM; in the experiment on SK-MEL-2 melanoma it was 77.7 µM.

Take `O=C(O)CNC(=O)c1ccc([As](=O)(O)O)cc1`: the TGI in the experiment with T-47D breast, with K-562 leukemia, in the experiment on SN12C renal, in the experiment on HCT-15 colon, with NCI-H226 lung and in the experiment with MOLT-4 leukemia was above 100 µM in each case. For the same molecule, the TGI with A549 NSCLC, in the experiment with RPMI-8226 leukemia, with SK-MEL-28 melanoma, in the experiment on TK-10 renal and with SK-MEL-2 melanoma was above 100 µM each time.

As for `CC(C)(CO)N1C(=O)c2ccccc2C1(O)c1ccc(Cl)cc1` (stereo unspecified), the TGI with T-47D breast, in the experiment on K-562 leukemia, in the experiment on SN12C renal, with HCT-15 colon, with NCI-H226 lung and in the experiment on MOLT-4 leukemia was above 100 µM throughout. The TGI with A549 NSCLC, in the experiment with RPMI-8226 leukemia, in the experiment with SK-MEL-28 melanoma, in the experiment on TK-10 renal and in the experiment with SK-MEL-2 melanoma was above 100 µM each time.
